The values below come from US7709523B2, “Alpha-aminoamide derivatives useful as antimigraine agents” (Newron Pharmaceuticals SpA, priority 2003, dated 2010).

The test system of this experiment is CBF response evoked by electrical stimulation of the left ophthalmic branch of the trigeminal ganglion. Nature of the experiment: Inhibition of cerebral blood flow (CBF) increase evoked by electrical stimulation of the trigeminal ganglion in anesthetized rats. In kind it is in vivo, Male Wistar rats. The conditions noted are these: rat, i.v.; for % Inhibition of the CBF response: mean±S.E. of 4/6 rats, versus vehicle. As to the method:
Male Wistar rats (250-350 g) were anesthetized with sodium pentobarbital (50 mg/kg i.p.) dissolved in saline. The trachea and left femoral artery were cannulated for artificial ventilation (55 strokes/min) and for measurement of mean blood pressure (MBP) respectively. The femoral vein was cannulated for the intravenous administration of test agents. Body temperature was maintained at 37-38° C. by automatic control of a heating pad. Animals were placed in a stereotaxic frame and a longitudinal incision was made in the scalp. A burr hole was drilled in the skull and a stainless steel bipolar electrode (Plastic One MS 306) was lowered into left ophthalmic branch of the trigeminal ganglion (3.8 mm […] to bregma, 2.5 mm lateral from the midline and 9.5 mm below the dural surface) and secured with dental cement. Correct placement of the electrode was confirmed by a brief electrical stimulation, which cause movement of the jaw due to activation of the trigeminal fiber. Following removal of the brain, the correct position of the electrode into the fiber, was visually checked at the end of each experiment. A second hole was drilled ipsilateral of the electrode (1.5 mm rostral to bregma, and 1.5 mm lateral from the sagittal suture) and a needle probe (tip diameter 0.8 mm) of a laser doppler flowmeter was fixed pointing with its tip onto a branch of the middle cerebral artery (MCA) and Cerebral Blood Flow (CBF) change recorded on-line by the PeriFlux 4001 Laser Doppler system. Artefacts of the laser Doppler reading during electrical stimulation of the trigeminal ganglion due to muscular movements were prevented by a bolus of i.v. injection of the neuromuscular blocker pancuronium bromide (0.6 mg/kg i.v.). Anesthesia and neuromuscular blockade were maintained all over the experiment with an infusion of sodium pentobarbital and pancuronium (12.5 mg/kg/h+2.4 mg/kg/h, respectively). At the end of the surgery, a pause of thirty minutes was taken in order to stabilize the measured parameters. Rest CBF was increased by electrical stimulation with rectangular pulse of 0.5 msec length, 1-10 Hz, 0.5-1 mA for periods of 30 seconds. After two averaged pre-drug stimulations, vehicle or drugs were administered. The α-aminoamide compounds NW-1015, NW-1029, NW-1039, representative of the invention, and the comparative 2-(4-(2-fluorobenzyloxy)benzylamino)-2-methyl-propanamide (internal code and hereinafter NW1050), 2-(4-(4-fluorobenzyloxy)benzylamino)-2-methyl-propanamide (internal code and hereinafter NW1055, also one of the compounds tested in WO99/26614), 4-(4′-fluorophenoxy)benzaldheyde semicarbazone (hereinafter Co102862, tested in WO00/61188) and vehicle, were administered intravenously after second basal stimulation registering the responses to evoked flow by electrical stimulation at 5, 15, 30 and 60 min after treatment. NW-1015, was administered at the doses of 1, 2 and 5 mg/kg; NW-1029 was administered at the doses of 5 and 10 mg/kg and NW-1039 at the doses of 2 and 5 mg/kg whereas NW-1050, NW-1055 and Co102862 were all administered at the dose of 20 mg/kg. The responses obtained after drug administration were compared to the vehicle group, and were reported as a percentage of the inhibition of the evoked CBF. Data were compared by analysis of covariance (ANCOVA) followed by Dunnet's test. The antimigraine effect of the tested compounds was observed and measured as the percentage of the inhibition after i.v. administration of the above mentioned representative compounds of the CBF evoked in control condition. The data reported in table 1 below show the inhibitory activity of the tested compounds on the CBF response evoked by electrical stimulation of the left ophthalmic branch of the trigeminal ganglion. Results (mean±S.E. of 4/6 rats per group) are expressed as percent of the inhibition on evoked CBF response versus the vehicle.

Where [1] appears, read: at the doses tested (1-10 mg/kg), up to 60 min.
The mark [2] stands for this setting: dose 2 mg/kg, 5 min after administration.
[3] abbreviates: dose 2 mg/kg, 15 min after administration.
Setting [4] is: dose 2 mg/kg, 30 min after administration.
The mark [5] stands for this setting: dose 2 mg/kg, 60 min after administration.
Setting [6] is: dose 5 mg/kg, 5 min after administration.
The mark [7] stands for this setting: dose 5 mg/kg, 15 min after administration.
[8] abbreviates: dose 5 mg/kg, 30 min after administration.
[9] abbreviates: dose 5 mg/kg, 60 min after administration.
[10] abbreviates: dose 20 mg/kg, 5 min after administration.
[11] abbreviates: dose 20 mg/kg, 15 min after administration.
The mark [12] stands for this setting: dose 20 mg/kg, 30 min after administration.
Setting [13] is: dose 20 mg/kg, 60 min after administration.

Consider `C[C@H](NCc1ccc(OCc2cccc(Cl)c2)cc1)C(N)=O` [NW-1039, (S)-(+)-2-[4-(3-chlorobenzyloxy)benzylamino]-propanamide], for which the “Effect on the evoked CBF compared to the vehicle group (in words)” value under setting [1] is listed as “produced a decrease of the evoked CBF response compared to the vehicle group”. Also, the “% Inhibition of the CBF response” value reads like this: under setting [2], 24.2 ± 6.2%; under setting [3], 31.3 ± 6.2 %; under setting [4], 32.1 ± 8.1 %; under setting [5], 36.2 ± 9.1 %; under setting [6], 45.0 ± 6.3 %; under setting [7], 41.7 ± 1.8 %. The “% Inhibition of the CBF response” value by setting is: under setting [8], 38.1 ± 2.6 %; under setting [9], 20.9 ± 9.4%.

Turning to `NC(=O)NN=Cc1ccc(Oc2ccc(F)cc2)cc1` [Co102862, 4-(4′-fluorophenoxy)benzaldheyde semicarbazone, reference compound], the “Effect on the evoked CBF compared to the vehicle group (in words)” value (20 mg/kg) is “completely inactive”. For the same molecule, the “% Inhibition of the CBF response” value reads like this: under setting [10], 0.9 ± 0.1%; under setting [11], 1.1 ± 0.3%; under setting [12], 1.2 ± 0.2%; under setting [13], 0.7 ± 0.1%.

Take `CC(C)(NCc1ccc(OCc2ccccc2F)cc1)C(N)=O` [NW-1050, 2-(4-(2-fluorobenzyloxy)benzylamino)-2-methyl-propanamide, reference compound]: the “Effect on the evoked CBF compared to the vehicle group (in words)” value (20 mg/kg) was “completely inactive”. The “% Inhibition of the CBF response” value amounted to 1.2 ± 0.3% under setting [10], 1.8 ± 0.6% under setting [11], 1.7 ± 0.8% under setting [12] and 0.9 ± 0.1% under setting [13].

As for `CC(C)(NCc1ccc(OCc2ccc(F)cc2)cc1)C(N)=O` [NW-1055, 2-(4-(4-fluorobenzyloxy)benzylamino)-2-methyl-propanamide, reference compound], the “Effect on the evoked CBF compared to the vehicle group (in words)” value (20 mg/kg) was “light inhibition of the evoked CBF, which however did not reach a statistically significant difference”. Further, the “% Inhibition of the CBF response” value is, setting by setting: under setting [10], 6.9 ± 4.2%; under setting [11], 3.4 ± 3.2%; under setting [12], 11.3 ± 2.0%; under setting [13], 14.0 ± 4.0%.

As to `C[C@H](NCc1ccc(OCc2cccc(F)c2)cc1)C(N)=O` [NW-1015, (S)-(+)-2-[4-(3-fluorobenzyloxy)benzylamino]-propanamide], the “Effect on the evoked CBF compared to the vehicle group (in words)” value under setting [1] is “long lasting i.v. activity reducing the evoked CBF up to 60 min after administration”. The “% Inhibition of the CBF response” value is recorded as 25.6 ± 2.9% (dose 1 mg/kg, 5 min after administration); 25.8 ± 2.7% (dose 1 mg/kg, 15 min after administration); 36.6 ± 4.7 % (dose 1 mg/kg, 30 min after administration); 15.7 ± 9.8% (dose 1 mg/kg, 60 min after administration); 15.0 ± 1.8 % under setting [2]; 22.0 ± 3.8 % under setting [3]. Further, the “% Inhibition of the CBF response” value by setting is: under setting [4], 20.6 ± 6.2 %; under setting [5], 4.0 ± 6.3%; under setting [6], 25.2 ± 2.6%; under setting [7], 35.5 ± 6.5 %; under setting [8], 34.7 ± 1.9 %; under setting [9], 27.1 ± 3.6%.

On to `C[C@H](NCc1ccc(OCc2ccccc2F)cc1)C(N)=O` [NW-1029, (S)-(+)-2-[4-(2-fluorobenzyloxy)benzylamino]-propanamide], for which the “Effect on the evoked CBF compared to the vehicle group (in words)” value under setting [1] was “reduced the evoked CBF compared to the vehicle up to 60 min post administration”. In addition, the “% Inhibition of the CBF response” value is, setting by setting: under setting [6], 15.5 ± 3.7%; under setting [7], 20.8 ± 3.5%; under setting [8], 27.8 ± 3.9 %; under setting [9], 30.6 ± 2.8%; (dose 10 mg/kg, 5 min after administration) 23.9 ± 3.9%; (dose 10 mg/kg, 15 min after administration) 34.9 ± 8.2 %. Also, the “% Inhibition of the CBF response” value is, setting by setting: (dose 10 mg/kg, 30 min after administration) 35.3 ± 2.6 %; (dose 10 mg/kg, 60 min after administration) 35.7 ± 3.9 %.
